{"source": "patent US7429564B2", "about": "“Oral insulin therapy” (Emisphere Technologies, Inc., priority 2002, dated 2008)", "experiment": "Example 5: 4-CNAB plasma pharmacokinetics, single oral doses, healthy male volunteers", "assay_type": "in vivo, human", "settings": "for MRT inf: read-out: 4-CNAB MRT(0-inf); for Vd/F: read-out: 4-CNAB Vd/F", "protocol": "A single center, double-blind, randomized placebo-controlled study undertaken in healthy human subjects in order to assess the safety and tolerability of escalating single oral doses of 4-CNAB capsules and insulin/4-CNAB capsules.\nWithin each treatment period in each group, eight subjects were planned to receive active treatment and two subjects to receive placebo. In Group 1, there were four escalating single doses of 4-CNAB (400, 800, 1400 and 2000 mg) and each subject received either all four of these escalating doses or three escalating single doses and one dose of placebo. […] In Group 3 there were three escalating oral doses of Insulin/4-CNAB (100 Units/300 mg, 100 Units/450 mg and 150 Units/100 mg) and one SC dose of 150 Units of insulin. Each subject received either all four of these treatments or three of these treatments and one placebo treatment. For all groups, there was a washout period of at least 72 hours between treatment periods.\nThe concentration of 4-CNAB in plasma was determined using a combination of liquid chromatography and Mass spectrometry assay known as LC-MS/MS. The method involves protein precipitation followed by separation on liquid chromatography using a Hypersil BDS column and a mobile phase consisting of methanol and acetate buffer. The eluting peaks were quantified by MS/MS. The equipment used for the determination of 4-CNAB in plasma comprises of an Agilent 1100 modular HPLC system with a Micromass Quattro Micro MS/MS detector. HPLC and AR grade chemicals and reagents were used throughout the study.\nOn the basis of plasma concentrations of 4-CNAB and insulin, PK analysis was performed using non-compartmental PK methods as implemented in WinNonlin™ Professional version 3.2. The profiles for insulin and C-peptide corrected insulin were evaluated up to 6 hours as food was given 6 hours following insulin treatment. The following parameters were derived for 4-CNAB: Cmax, tmax, AUC(0-t), AUC(0-inf), AUC% Extrap, Kel, t1/2, CL/F, Vd/F, MRT(0-t), MRT(0-inf) and Frel. The following parameters were derived for insulin and C-peptide corrected insulin: Cmax, tmax, AUC(0-2), AUC(0-6), AUC(0-t) and concentrations (C^b) and corresponding time (t^b) immediately prior to intervention for hypoglycemia.", "key": {"[1]": {"settings": "male, human, plasma, oral, 400 mg, Group/Treatment 1/1, 4-CNAB dose 400, alone, unaudited data"}, "[2]": {"settings": "male, human, plasma, oral, 800 mg, Group/Treatment 1/2, 4-CNAB dose 800, alone, unaudited data"}, "[3]": {"settings": "male, human, plasma, oral, 1400 mg, Group/Treatment 1/3, 4-CNAB dose 1400, alone, unaudited data"}, "[4]": {"settings": "male, human, plasma, oral, 2000 mg, Group/Treatment 1/4, 4-CNAB dose 2000, alone, unaudited data"}, "[5]": {"settings": "male, human, plasma, oral, Group/Treatment 2/2, 4-CNAB dose 200, with insulin, unaudited data"}, "[6]": {"settings": "male, human, plasma, oral, Group/Treatment 2/3, 4-CNAB dose 600, with insulin, unaudited data"}, "[7]": {"settings": "male, human, plasma, oral, Group/Treatment 3/1, 4-CNAB dose 300, with insulin, unaudited data"}, "[8]": {"settings": "male, human, plasma, oral, Group/Treatment 3/2, 4-CNAB dose 450, with insulin, unaudited data"}, "[9]": {"settings": "male, human, plasma, oral, Group/Treatment 3/3, 4-CNAB dose 100, with insulin, unaudited data"}, "[10]": {"settings": "male, human, plasma, po, 400 mg, 4-CNAB alone 400 mg oral"}, "[11]": {"settings": "male, human, plasma, po, 800 mg, 4-CNAB alone 800 mg oral"}, "[12]": {"settings": "male, human, plasma, po, 1400 mg, 4-CNAB alone 1400 mg oral"}}, "note": "Where two headings read alike, the source gives them in different places. Marks after values point to notes of the source that are not given here.", "data": [{"smiles": "O=C(O)CCCNC(=O)c1ccc(Cl)cc1O", "note": "[4-CNAB, 4-[(4-chloro, 2-hydroxybenzoyl)amino]butanoic acid]", "values": [{"measurement": "4-CNAB Cl/F", "setting": "4-CNAB alone 400 mg oral", "result": "294 ± 122", "unit": "mL/min"}, {"measurement": "4-CNAB Kel", "setting": "4-CNAB alone 400 mg oral", "result": "0.11 ± 0.78", "unit": "h⁻¹"}, {"measurement": "4-CNAB Cl/F", "setting": "4-CNAB alone 800 mg oral", "result": "290 ± 88^b mL/min"}, {"measurement": "4-CNAB Kel", "setting": "4-CNAB alone 800 mg oral", "result": "0.12 ± 0.04", "unit": "h⁻¹"}, {"measurement": "4-CNAB Cl/F", "setting": "4-CNAB alone 1400 mg oral", "result": "160 ± 38", "unit": "mL/min"}, {"measurement": "4-CNAB Kel", "setting": "4-CNAB alone 1400 mg oral", "result": "0.18 ± 0.14", "unit": "h⁻¹"}, {"measurement": "4-CNAB Cl/F", "setting": "4-CNAB alone 2000 mg oral", "result": "178 ± 32^a mL/min"}, {"measurement": "4-CNAB Kel", "setting": "4-CNAB alone 2000 mg oral", "result": "0.06 ± 0.03", "unit": "h⁻¹"}, {"measurement": "4-CNAB median time of maximum concentration", "setting": "4-CNAB alone and combined Insulin/4-CNAB treatment", "result": "around 0.6 hours"}, {"measurement": "AUC", "setting": "[1]", "result": 22400, "unit": "ng·h/mL"}, {"measurement": "Cmax", "setting": "[1]", "result": 22300, "unit": "ng/mL"}, {"measurement": "Tmax", "setting": "male, human, plasma, oral, 400 mg, Group/Treatment 1/1, 4-CNAB dose 400, alone, unaudited data, read-out: 4-CNAB tmax (range)", "result": 30, "unit": "min"}, {"measurement": "AUC", "setting": "[2]", "result": 42700, "unit": "ng·h/mL"}, {"measurement": "Cmax", "setting": "[2]", "result": 32700, "unit": "ng/mL"}, {"measurement": "Tmax", "setting": "male, human, plasma, oral, 800 mg, Group/Treatment 1/2, 4-CNAB dose 800, alone, unaudited data, read-out: 4-CNAB tmax (range)", "result": 30, "unit": "min"}, {"measurement": "AUC", "setting": "[3]", "result": 144000, "unit": "ng·h/mL"}, {"measurement": "Cmax", "setting": "[3]", "result": 97500, "unit": "ng/mL"}, {"measurement": "Tmax", "setting": "male, human, plasma, oral, 1400 mg, Group/Treatment 1/3, 4-CNAB dose 1400, alone, unaudited data, read-out: 4-CNAB tmax (range)", "result": 30, "unit": "min"}, {"measurement": "AUC", "setting": "[4]", "result": 213000, "unit": "ng·h/mL"}, {"measurement": "Cmax", "setting": "[4]", "result": 122000, "unit": "ng/mL"}, {"measurement": "Tmax", "setting": "male, human, plasma, oral, 2000 mg, Group/Treatment 1/4, 4-CNAB dose 2000, alone, unaudited data, read-out: 4-CNAB tmax (range)", "result": 45, "unit": "min"}, {"measurement": "half-life", "setting": "male, human, plasma, oral, 4-CNAB alone, read-out: 4-CNAB mean elimination half-life, range across doses", "result": "354 to 918", "unit": "min"}, {"measurement": "AUC", "setting": "[5]", "result": 10000, "unit": "ng·h/mL"}, {"measurement": "Cmax", "setting": "[5]", "result": 9160, "unit": "ng/mL"}, {"measurement": "Tmax", "setting": "male, human, plasma, oral, Group/Treatment 2/2, 4-CNAB dose 200, with insulin, unaudited data, read-out: 4-CNAB tmax (range)", "result": 30, "unit": "min"}, {"measurement": "AUC", "setting": "[6]", "result": 36700, "unit": "ng·h/mL"}, {"measurement": "Cmax", "setting": "[6]", "result": 33200, "unit": "ng/mL"}, {"measurement": "Tmax", "setting": "male, human, plasma, oral, Group/Treatment 2/3, 4-CNAB dose 600, with insulin, unaudited data, read-out: 4-CNAB tmax (range)", "result": 30, "unit": "min"}, {"measurement": "AUC", "setting": "[7]", "result": 8740, "unit": "ng·h/mL"}, {"measurement": "Cmax", "setting": "[7]", "result": 8660, "unit": "ng/mL"}, {"measurement": "Tmax", "setting": "male, human, plasma, oral, Group/Treatment 3/1, 4-CNAB dose 300, with insulin, unaudited data, read-out: 4-CNAB tmax (range)", "result": 30, "unit": "min"}, {"measurement": "AUC", "setting": "[8]", "result": 25900, "unit": "ng·h/mL"}, {"measurement": "Cmax", "setting": "[8]", "result": 20100, "unit": "ng/mL"}, {"measurement": "Tmax", "setting": "male, human, plasma, oral, Group/Treatment 3/2, 4-CNAB dose 450, with insulin, unaudited data, read-out: 4-CNAB tmax (range)", "result": 30, "unit": "min"}, {"measurement": "AUC", "setting": "[9]", "result": 4710, "unit": "ng·h/mL"}, {"measurement": "Cmax", "setting": "[9]", "result": 5170, "unit": "ng/mL"}, {"measurement": "Tmax", "setting": "male, human, plasma, oral, Group/Treatment 3/3, 4-CNAB dose 100, with insulin, unaudited data, read-out: 4-CNAB tmax (range)", "result": 15, "unit": "min"}, {"measurement": "MRT", "setting": "male, human, plasma, oral, across treatments, read-out: 4-CNAB MRT, range", "result": "84 to 108", "unit": "min"}, {"measurement": "half-life", "setting": "male, human, plasma, oral, combination capsules with insulin, across dose groups, read-out: 4-CNAB mean elimination half-life", "result": "192 to 318", "unit": "min"}, {"measurement": "AUC(0-inf)", "setting": "[10]", "result": "26700 ± 12200", "unit": "ng·h/mL"}, {"measurement": "AUC(0-t)", "setting": "[10]", "result": "22200 ± 6760", "unit": "ng·h/mL"}, {"measurement": "Cmax", "setting": "[10]", "result": "22300 ± 11500", "unit": "ng/mL"}, {"measurement": "MRT inf", "setting": "[10]", "result": "438 ± 693", "unit": "min"}, {"measurement": "Vd/F", "setting": "[10]", "result": "220 ± 130", "unit": "L"}, {"measurement": "half-life", "setting": "male, human, plasma, po, 400 mg, 4-CNAB alone 400 mg oral, read-out: 4-CNAB t1/2 (converted)", "result": "720 ± 804", "unit": "min"}, {"measurement": "Tmax", "setting": "male, human, plasma, po, 400 mg, 4-CNAB alone 400 mg oral, read-out: 4-CNAB tmax, median (range)", "result": 30, "unit": "min"}, {"measurement": "AUC(0-inf)", "setting": "[11]", "result": "49400 ± 15100", "unit": "ng·h/mL"}, {"measurement": "AUC(0-t)", "setting": "[11]", "result": "44300 ± 14500", "unit": "ng·h/mL"}, {"measurement": "Cmax", "setting": "[11]", "result": "38000 ± 15800", "unit": "ng/mL"}, {"measurement": "MRT inf", "setting": "[11]", "result": "156 ± 31.8", "unit": "min"}, {"measurement": "Vd/F", "setting": "[11]", "result": "156 ± 82", "unit": "L"}, {"measurement": "half-life", "setting": "male, human, plasma, po, 800 mg, 4-CNAB alone 800 mg oral, read-out: 4-CNAB t1/2 (converted)", "result": "354 ± 93", "unit": "min"}, {"measurement": "Tmax", "setting": "male, human, plasma, po, 800 mg, 4-CNAB alone 800 mg oral, read-out: 4-CNAB tmax, median (range)", "result": 30, "unit": "min"}, {"measurement": "AUC(0-inf)", "setting": "[12]", "result": "154000 ± 38100", "unit": "ng·h/mL"}, {"measurement": "AUC(0-t)", "setting": "[12]", "result": "144000 ± 33800", "unit": "ng·h/mL"}, {"measurement": "Cmax", "setting": "[12]", "result": "103000 ± 14600", "unit": "ng/mL"}, {"measurement": "MRT inf", "setting": "[12]", "result": "184 ± 103", "unit": "min"}, {"measurement": "Vd/F", "setting": "[12]", "result": "81 ± 50", "unit": "L"}, {"measurement": "half-life", "setting": "male, human, plasma, po, 1400 mg, 4-CNAB alone 1400 mg oral, read-out: 4-CNAB t1/2 (converted)", "result": "378 ± 246", "unit": "min"}, {"measurement": "Tmax", "setting": "male, human, plasma, po, 1400 mg, 4-CNAB alone 1400 mg oral, read-out: 4-CNAB tmax, median (range)", "result": 45, "unit": "min"}]}]}
